Measured values published in US11878047B2, “ATF5 peptide variants and uses thereof” (Sapience Therapeutics, Inc., priority 2018, dated 2024).
Read-outs that look alike come from different tables or passages of the source. Ends that are not written are not given here.

Tests used:
Format in all cases: cell-based, human
HL60 cells = assay: HL60 cell viability (cytotoxicity) assay, Annexin V FITC/PI flow cytometry
Protocol: HL60 PML suspension cells were set at a density of 3.5×10^3 cells/well in 150 μL of RPMI+1.5% fetal bovine serum (FBS) in a 96 well dish. ST-3, reconstituted at a concentration of 10 mg/mL in 20 mM His, pH 7.5, was added to each well at a volume of 50 μL to a final concentration range of 0-80 μM. Cells were incubated with ST-3 for 48 hours at 37° C. Cell viability was quantified by flow cytometry using an Abcam Annexin V FITC apoptosis detection kit. Briefly, cells were washed with PBS and resuspended in 1× assay buffer containing Annexin V FITC and propidium iodide (PI). Annexin V detects apoptotic cells, and PI stains dead cells. After staining, apoptotic cells show green fluorescence, dead cells show red and green fluorescence, and live cells show little or no fluorescence. Cells were selected for analysis based on forward scatter (FSC) vs. side scatter (SSC), and analyzed by BD Accuri C6 Plus flow cytometer to detect Annexin V-FITC binding (Ex=488 nm; Em=530 nm) using FITC signal detector and PI staining by the phycoerythrin emission signal detector. Percentage of Annexin V^low and PI^low were quantified and presented as % Viability.
Lyophilized ST-3 or ST-3 with glycine (ST-4) or alanine (ST-5) substituted for cysteine at amino acid position 21 was freshly reconstituted in histidine buffer to a stock solution of 5 mg/mL and added to cells at a final concentration range of 0-40 μM. Cells were incubated with ATF5 peptide for 48 hours prior to quantification of cell viability.
(§1) ST-13 was further examined in various human cancer cell lines, as was a second retro-inverso variant, ST-14. Suspension cells (HL60, AML14, or SET2) were set at a density of 3.5×10^3 cells/well in 150 μL of RPMI+1.5% fetal bovine serum (FBS) in a tissue culture-treated 96 well dish. ATF5 peptide, reconstituted at a concentration of 10 mg/mL in 20 mM His, pH 7.5, was added to each well at a volume of 50 μL to a final concentration range of 0-80 μM. Cells were incubated with peptide for 48 hours at 37° C. Cell viability was quantified by flow cytometry using an Abcam Annexin V FITC apoptosis detection kit. Briefly, cells were washed with PBS and resuspended in 1× assay buffer containing Annexin V FITC and propidium iodide (PI). Cells were analyzed by BD Accuri C6 Plus flow cytometer to detect Annexin V-FITC binding (Ex=488 nm; Em=530 nm) using FITC signal detector, and to detect PI staining using the phycoerythrin emission signal detector. Percentage of Annexin V^low and PI^low were quantified and presented as % Viability. EC50 values were calculated using GraphPad Prism v.7 XML.

[1] = test system: neoplastic cells / wide range of tumor cell types; assay: Cytotoxic activity across tumor cell types
Protocol: as §1, with “Briefly, cells were washed with PBS and resuspended in 1× assay buffer containing Annexin V FITC and propidium iodide (PI).” left out, “XML. […] Cell viability was determined as described above for suspension cells or by MTT assay (MCF7 cells). Alternatively, cells were gently removed from the cell culture plate following trypsinization with 2.5% trypsin, and cell viability was quantified by flow cytometry using an Abcam Annexin V FITC apoptosis detection kit, as described above.” for “XML.”

[2] = test system: AML14 acute myeloid leukemia cells
Protocol: as §1

[3] = test system: SET2 acute myeloid leukemia cells
Protocol: as §1

MCF7 breast cancer cells = test system: MCF7 breast cancer cells
Protocol: Additionally, adherent A375, MCF7, U251, DU145, U87, and A549 cells were set at a density of 3.5×10^3 cells/well in 200 μL of media on day −1. On day 0, media was removed and replenished with 150 μL of fresh media, and cells were treated with ATF5 peptide as described. Following a 48-hour incubation at 37° C., floating cells were collected, adherent cells were washed with Dulbecco's Phosphate Buffered Saline (DPBS), dissociated from the dish with 50 μL 2.5% trypsin at RT, and combined with floating cells. Cell viability was determined as described above for suspension cells or by MTT assay (MCF7 cells). Alternatively, cells were gently removed from the cell culture plate following trypsinization with 2.5% trypsin, and cell viability was quantified by flow cytometry using an Abcam Annexin V FITC apoptosis detection kit, as described above.

[4] = HL60 cell viability assay, 48 hours

Molecule | cytotoxic activity compared with other peptides (HL60 cells; [4]) | further results
RQIKIWFQNRRMKWKKLEGEGQGLEARNRELKERAESV [ST-4] | attenuated but not ablated | 
RQIKIWFQNRRMKWKKLEGRCQGLRAENRELEERAESV [ST-9] | significantly increased over that of ST-3 | 
RQIKIWFQNRRMKWKKLEGRAQGLRAELRELEERAEAV [ST-11] | improved cytotoxic activity over ST-3 | 
RQIKIWFQNRRMKWKKLEGECQGLEARNRELKERAEAV [ST-6] | comparable activity to ST-3 | 
RQIKIWFQNRRMKWKKLEGECQGLEARNRELKERAESV [ST-3, reference compound] |  | cytotoxic activity in tumor / neoplastic cells [1]: induces cell death in neoplastic cells
RQIKIWFQNRRMKWKKLEGEAQGLEARNRELKERAESV [ST-5] | attenuated but not ablated | 
CC[C@@H](C)[C@@H](NC(=O)[C@@H](CCCCN)NC(=O)[C@H](NC(=O)[C@@H](Cc1c[nH]c2ccccc12)NC(=O)[C@@H](Cc1ccccc1)NC(=O)[C@@H](CCC(N)=O)NC(=O)[C@@H](CC(N)=O)NC(=O)[C@@H](CCCNC(=N)N)NC(=O)[C@@H](CCCNC(=N)N)NC(=O)[C@@H](CCSC)NC(=O)[C@@H](CCCCN)NC(=O)[C@@H](Cc1c[nH]c2ccccc12)NC(=O)[C@@H](CCCCN)NC(=O)[C@@H](CCCCN)NC(=O)[C@@H](CC(C)C)NC(=O)[C@@H](CCC(=O)O)NC(=O)CNC(=O)[C@@H](CCCNC(=N)N)NC(=O)[C@@H](C)NC(=O)[C@@H](CCC(N)=O)NC(=O)CNC(=O)[C@@H](CC(C)C)NC(=O)[C@@H](CCCNC(=N)N)NC(=O)[C@@H](C)NC(=O)[C@@H](CCC(=O)O)NC(=O)[C@@H](CC(C)C)NC(=O)[C@@H](CCCNC(=N)N)NC(=O)[C@@H](CCC(=O)O)NC(=O)[C@@H](CC(C)C)NC(=O)[C@@H](CCC(=O)O)NC(=O)[C@@H](CCC(=O)O)NC(=O)[C@@H](CCCNC(=N)N)NC(=O)[C@@H](C)NC(=O)[C@@H](CCC(=O)O)NC(=O)[C@@H](C)NC(=O)[C@H](N)C(C)C)[C@H](C)CC)C(=O)N[C@H](CCC(N)=O)C(=O)N[C@H](CCCNC(=N)N)C(=O)O [ST-13] |  | cytotoxic activity compared with other peptides (HL60 cells): comparable activity to ST-11, and superior activity to ST-3; EC50 [2]: < 1 µM; EC50 [3]: 17.7 µM; EC50 (MCF7 breast cancer cells): < 1 µM; cytotoxic activity in tumor / neoplastic cells [1]: significant cytotoxic activity
RQIKIWFQNRRMKWKKLEGRCQGLRAELRELEERAEAV [ST-10] | comparable to that of ST-9 | 
